How the values were obtained:
[1] = test system: Peripheral blood mononuclear cells (PBMCs), CD3+Vα24+ NKT cells; experiment: In vitro expansion of CD3+Vα24+ NKT cells from human PBMCs; assay type: cell-based; conditions: 13 days; 0.1 μg/ml KRN7000, 1 μg/ml α-GalCerBf, 1 μg/ml ceramideBf
Description: FIGS. 6A and 6B illustrate that α-GalCerBf binds human CD1d and activates human NKT cells in vitro. FIG. 6A: PBMCs were cultured for 13 days with 0.1 μg/mlKRN7000, 1 μg/ml α-GalCerBf, or 1 μg/ml ceramideBf. Dot plots show CD3^+Vα24^+NKT cells pre- and post-expansion. The data shown are representative of at least two individual experiments performed with six individual donors. FIG. 6B: Human NKT cells were purified after two rounds of expansion with 1 μg/ml α-GalCerBf and restimulated with 10 μg/ml α-GalCerBf in the presence or absence of control Ig or anti-Cd1d blocking antibodies. IFN-γ secretion was measured in supernatants 40-48 hours later. Data are representative of two independent experiments.
The capability of α-GalCerBf to stimulate freshly isolated NKT cells was determined. A first experiment was performed to determine whether Vα24^+ cells could be expanded in vitro with α-GalCerBf as previously described for KRN7000 (see, e.g., Rogers et al., J. Immunol. Meth. 285:197-214 (2004)). Peripheral blood mononuclear cells (PBMCs) were cultured with 0.1 μg/ml KRN7000, 1 μg/ml α-GalCerBf, or 1 μg/ml ceramideBf for 13 days. The presence of CD3 Vα24^+ cells was then assessed by flow cytometry. At least two individual experiments performed with six individual donors. […] IFN-γ secretion was measured in supernatants 40-48 hours later.

[2] = test system: liver NKT cells; experiment: In vivo activation of NKT cells by transfer of sphingolipid-pulsed BMDCs; parameters: species or system C57BL/6 mice; conditions: without re-stimulation; BMDCs pulsed with α-GalCerBf
Description: FIGS. 7A-7F illustrate that α-GalCerBf activates NKT cells in vivo. Bone marrow-derived dendritic cells (BMDCs) were pulsed in vitro with LPS only or LPS+α-GalCerBf for 24 hr. Then 0.4×10^6 cells were treated with control Ig or anti-CD1d blocking antibody and then transferred to WT mice. Liver mononuclear cells were analyzed 16-18 hr later. Data shown were pooled from three independent experiments. FIGS. 7A-7C: Expression of CD25 and CD69 on gated CD3^+tetramer^+ cells. Representative flow cytometry plots and pooled data showing fold change of CD25 and CD69 surface expression compared to NKT cells isolated from mice transferred with LPS-pulsed BMDCs. FIGS. 7D and 7E provide representative flow cytometry plots and pooled data, respectively, of intracellular IFN-γ expression on gated CD3^+ tetramer^+ cells. FIG. 7F presents serum IFN-γ levels. […]
Mice were sacrificed 16-18 hr after transfer of 0.4×10^6 mature CD86^hiMHCII^hi BMDCs. […] All isolations were performed in the presence of brefeldin A. After cell surface staining, cells were fixed in Cytofix/Cytoperm (BD Biosciences) according to the manufacturer's instructions and stained for intracellular cytokines Serum IFN-γ was measured by ELISA. […]
As described herein, because α-GalCerBf is an agonist of NKT cell hybridomas and freshly isolated NKT cells in culture, the capability of α-GalCerBf to activate NKT cells in vivo was determined. […]

[3] = test system: cyclophosphamide (CY) induced diabetes; experiment: Cyclophosphamide-induced diabetes mouse model; assay type: in vivo, NOD mice; conditions: 25 μg intraperitoneally on days 0, 2, 4, 6, 8; diabetic = blood glucose above 250 mg/dL; 100% of DMSO controls diabetic
Description: FIG. 8 presents a graph illustrating the percent of animals that developed diabetes in a cyclophosphamide-induced diabetes mouse model. Groups of animals received DMSO only, α-GalCerBf, or KRN7000. Number of animals is represented by n. Mice were considered diabetic when blood glucose was above 250 mg/dL. Blood glucose levels were measured at the time point shown. Data are representative of three independent experiments. KRN7000 prevents cyclophosphamide (CY) induced diabetes in a Non-Obese Diabetic (NOD) mouse model (see, e.g., Sharif et al., Nat. Med. 7:1057-62 (2001)). Prevention of diabetes in this model is believed to be associated with suppression of T and B cell responses to islet antigens as well as a polarization towards TH2-like responses (see Sharif, supra). This example describes the effect of α-GalCerBf in the CY induced diabetes mouse model. Groups of twelve-week old NOD female mice were given 300 mg/kg cyclophosphamide intraperitoneally on day 0. Groups of mice received DMSO (n=4), or 25 μg α-GalCerBf (n=7) or 5 μg KRN7000 (n=3) diluted in DMSO intraperitoneally on days 0, 2, 4, 6, and 8. Diabetes progression was monitored by measuring blood glucose at each time point (see FIG. 8). […] Kaplan-Meier survival curves were determined by a log-rank test using Prism software.

SMILES | Expansion of a population of CD3+Vα24+ cells [1] | Liver NKT cells expressing IFN-γ [2] [%] | Mice in which diabetes development was prevented [3]
CC(C)CCCCCCCCCCC[C@@H](O)CC(=O)N[C@@H](CO)[C@H](O)CCCCCCCCCCCC(C)C [ceramideBf] | did not show an expansion | – | –
CC(C)CCCCCCCCCCC[C@@H](O)CC(=O)N[C@@H](CO[C@H]1OC(CO)[C@H](O)[C@H](O)C1O)[C@H](O)CCCCCCCCCCCC(C)C (stereo partly drawn) [α-GalCerBf] | – | 15 | more than 40%
